We go through 22 molecules from patent US10988478B1, “Pyrazolo[1,5a]pyrimidine derivatives as IRAK4 modulators” (Genentech, Inc., priority 2015, dated 2021).

One may read the Ki as the dissociation constant of the complex between target and ligand, obtained from inhibition or displacement.

Molecules are shown by their SMILES.

Chain of human IRAK4 (Q9NWZ3 whole entry, the tested form may be a part): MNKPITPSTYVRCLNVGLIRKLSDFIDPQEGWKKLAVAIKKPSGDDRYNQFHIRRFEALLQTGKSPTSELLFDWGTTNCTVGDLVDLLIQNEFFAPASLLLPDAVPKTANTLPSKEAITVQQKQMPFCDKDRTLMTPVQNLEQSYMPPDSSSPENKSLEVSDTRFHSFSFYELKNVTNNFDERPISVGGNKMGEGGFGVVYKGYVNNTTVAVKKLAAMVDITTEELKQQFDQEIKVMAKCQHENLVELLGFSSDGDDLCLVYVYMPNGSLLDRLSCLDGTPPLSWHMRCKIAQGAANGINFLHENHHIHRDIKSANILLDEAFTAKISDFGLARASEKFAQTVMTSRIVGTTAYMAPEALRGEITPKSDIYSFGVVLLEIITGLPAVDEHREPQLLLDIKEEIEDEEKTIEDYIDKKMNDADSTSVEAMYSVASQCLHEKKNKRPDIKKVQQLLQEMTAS

The target of this experiment is human IRAK4 (Homo sapiens (Human), UniProt Q9NWZ3). The experiment in a line: IRAK4 kinase inhibition, Transcreener fluorescence polarization ADP assay. Conditions: recombinant full-length His6-IRAK4; 125 uM ATP; 90 min; Ki computed using ATP Km 642 uM. The class given is biochemical. The procedure:
Compounds were assayed for inhibition of human IRAK4 and IRAK1 catalytic activity using recombinant enzyme produced from insect cells. Full-length IRAK4 protein, carrying an N-terminal His6-Tag, was obtained from Life Technologies (Carlsbad, Calif., USA). The IRAK1 construct was produced internally and was comprised of IRAK1 residues Arg194 to Ser712, preceded by an NH2-terminal His6 tag and the coding sequence for glutathione-S-transferase.
(In fluorescence polarisation assays a small probe gives low polarisation when free and higher when bound to something large.)
Turning to `C[C@@]1(CO)Cc2cc(NC(=O)c3cnn4cccnc34)c(N3CCC([C@](C)(O)C(F)(F)F)CC3)cc2O1` [Example 412, N—((S)-2-(hydroxymethyl)-2-methyl-6-(4-((S)-1,1,1-trifluoro-2-hydroxypropan-2-yl)piperidin-1-yl)-2,3-dihydrobenzofuran-5-yl)pyrazolo[1,5-a]pyrimidine-3-carboxamide], the Ki was determined as 5.9 nM.

Regarding `CC1(C)Cc2cc(NC(=O)c3cnn4cccnc34)c(N3CCN(CC(=O)N4CCCC4)CC3)cc2O1` [Example 243, N-(2,2-Dimethyl-6-(4-(2-oxo-2-(pyrrolidin-1-yl)ethyl)piperazin-1-yl)-2,3-dihydrobenzofuran-5-yl)pyrazolo[1,5-a]pyrimidine-3-carboxamide], the Ki is 250 nM.

On to `CC1(C)Cc2cc(NC(=O)c3cnn4cccnc34)c(N3CCN(CC(=O)N4CCOCC4)CC3)cc2O1` [Example 228, N-(2,2-Dimethyl-6-(4-(2-morpholino-2-oxoethyl)piperazin-1-yl)-2,3-dihydrobenzofuran-5-yl)pyrazolo[1,5-a]pyrimidine-3-carboxamide], for which the Ki was found to be 48 nM.

As for `C[C@@]1(CO)Cc2cc(NC(=O)c3cnn4cccnc34)c(N3CCC(CO)CC3)cc2O1` [Example 130, (S)—N-(2-(hydroxymethyl)-6-(4-(hydroxymethyl)piperidin-1-yl)-2-methyl-2,3-dihydrobenzofuran-5-yl)pyrazolo[1,5-a]pyrimidine-3-carboxamide], the Ki came out at 3.3 nM.

Turning to `CC1(C)Cc2cc(NC(=O)c3cnn4cccnc34)c(O[C@@H]3CCN(CC(N)=O)C3)cc2O1` [Example 445, (R)—N-(6-((1-(2-amino-2-oxoethyl)pyrrolidin-3-yl)oxy)-2,2-dimethyl-2,3-dihydrobenzofuran-5-yl)pyrazolo[1,5-a]pyrimidine-3-carboxamide], the Ki came to 3.3 nM.

Turning to `CC1(C)Cc2cc(NC(=O)c3cnn4cccnc34)c(N3CCN(Cc4ncc[nH]4)CC3)cc2O1` [Example 503, N-(6-(4-((1H-imidazol-2-yl)methyl)piperazin-1-yl)-2,2-dimethyl-2,3-dihydrobenzofuran-5-yl)pyrazolo[1,5-a]pyrimidine-3-carboxamide], the Ki was determined as 4 nM.

As for `CCC(=O)C1CCN(c2cc3c(cc2NC(=O)c2cnn4cccnc24)CC(C)(CO)O3)CC1` (stereo not shown) [Example 343, N-[2-(Hydroxymethyl)-2-methyl-6-(4-propanoyl-1-piperidyl)-3H-benzofuran-5-yl]pyrazolo[1,5-a]pyrimidine-3-carboxamide], the inhibitory constant (Ki) is 5 nM.

For the molecule `CC1(C)Cc2cc(NC(=O)c3cnn4cccnc34)c(N3CCN(CC#N)CC3)cc2O1` [Example 456, N-(6-(4-(cyanomethyl)piperazin-1-yl)-2,2-dimethyl-2,3-dihydrobenzofuran-5-yl)pyrazolo[1,5-a]pyrimidine-3-carboxamide], the Ki is 2.6 nM.

For the molecule `CC(C)N1Cc2cc(NC(=O)c3cnn4cccnc34)c(N3CCOCC3)cc2C1=O` [Example 138, N-(2-Isopropyl-6-morpholino-1-oxoisoindolin-5-yl)pyrazolo[1,5-a]pyrimidine-3-carboxamide], the Ki was 6.8 nM.

For `CN(C)C(=O)C1(C)Cc2cc(NC(=O)c3cnn4cccnc34)c(N3CCOCC3)cc2O1` (stereo not shown) [Example 23, N-(2-(Dimethylcarbamoyl)-2-methyl-6-morpholino-2,3-dihydrobenzofuran-5-yl)pyrazolo[1,5-a]pyrimidine-3-carboxamide], the Ki is 31 nM.

For `CC1(C)Cc2cc(NC(=O)c3cnn4cccnc34)c(C(N)=O)cc2O1` [Example 452, N-(6-carbamoyl-2,2-dimethyl-3H-benzofuran-5-yl)pyrazolo[1,5-a]pyrimidine-3-carboxamide], the Ki came to 150 nM.

Take `CC(C)(O)[C@H](F)CN1Cc2cc(NC(=O)c3cnn4cccnc34)c(N3CCC(F)(F)C3)cc2C1=O` [Example 261, N-[6-(3,3-Difluoropyrrolidin-1-yl)-2-[(2R)-2-fluoro-3-hydroxy-3-methyl-butyl]-1-oxo-isoindolin-5-yl]pyrazolo[1,5-a]pyrimidine-3-carboxamide]: the Ki came to 2 nM.

Take `C[C@@]1(CO)Cc2cc(NC(=O)c3cnn4cccnc34)c(N3C[C@H]4C[C@@H]3CO4)cc2O1` [Example 43, N—((S)-6-((1R,4R)-2-Oxa-5-azabicyclo[2.2.1]heptan-5-yl)-2-(hydroxymethyl)-2-methyl-2,3-dihydrobenzofuran-5-yl)pyrazolo[1,5-a]pyrimidine-3-carboxamide]: the Ki was found to be 130 nM.

Turning to `CC(C)(O)C(F)C1(C)Cc2cc(NC(=O)c3cnn4cccnc34)c(N3CCOCC3)cc2O1` (stereo not shown) [Example 392, N-[2-(1-fluoro-2-hydroxy-2-methyl-propyl)-2-methyl-6-morpholino-3H-benzofuran-5-yl]pyrazolo[1,5-a]pyrimidine-3-carboxamide], the Ki came out at 18 nM.

On to `CC1Cc2cc(NC(=O)c3cnn4cccnc34)c(N3CCOCC3)cc2O1` (stereo not shown) [Example 14, N-(2-Methyl-6-morpholino-2,3-dihydrobenzofuran-5-yl)pyrazolo[1,5-a]pyrimidine-3-carboxamide], for which the Ki amounted to 19 nM.

As for `C[C@@]1(CO)Cc2cc(NC(=O)c3cnn4cc(Cl)cnc34)c(N3CCC(CO)CC3)cc2O1` [Example 164, (S)-6-Chloro-N-(2-(hydroxymethyl)-6-(4-(hydroxymethyl)piperidin-1-yl)-2-methyl-2,3-dihydrobenzofuran-5-yl)pyrazolo[1,5-a]pyrimidine-3-carboxamide], the Ki worked out at 2.8 nM.

Take `CC1(C)Cc2cc(NC(=O)c3cnn4cccnc34)c(N3CCC(CO)CC3)cc2O1` [Example 4, N-(6-(4-(Hydroxymethyl)piperidin-1-yl)-2,2-dimethyl-2,3-dihydrobenzofuran-5-yl)pyrazolo[1,5-a]pyrimidine-3-carboxamide]: the Ki amounted to 1.5 nM.

Take `CC1(C)Cc2cc(NC(=O)c3cnn4cccnc34)c(N3CCN(CCO)CC3)cc2O1` [Example 60, N-[6-[4-(2-Hydroxyethyl)piperazin-1-yl]-2,2-dimethyl-3H-benzofuran-5-yl]pyrazolo[1,5-a]pyrimidine-3-carboxamide]: the Ki came out at 6.6 nM.

Regarding `CC1(C)Cc2cc(NC(=O)c3cnn4cccnc34)c(N3Cc4cccnc4C3)cc2O1` [Example 189, N-[6-(5,7-dihydropyrrolo[3,4-b]pyridin-6-yl)-2,2-dimethyl-3H-benzofuran-5-yl]pyrazolo[1,5-a]pyrimidine-3-carboxamide], the Ki came to 5.5 nM.

On to `CC1(C)CN(c2cc3c(cc2NC(=O)c2cnn4cccnc24)C[C@](C)(CO)O3)CCO1` [Example 36, (R)—N-(6-(2,2-dimethylmorpholino)-2-(hydroxymethyl)-2-methyl-2,3-dihydrobenzofuran-5-yl)pyrazolo[1,5-a]pyrimidine-3-carboxamide], for which the inhibition constant (Ki) is 150 nM.

Consider `CC1(C)Cc2cc(NC(=O)c3cnn4cccnc34)c(N3CC4C(CO)C4C3)cc2O1` (stereo not shown) [Example 215, N-(6-(6-(hydroxymethyl)-3-azabicyclo[3.1.0]hexan-3-yl)-2,2-azabicyclo[3.1.0]dimethyl-2,3-dihydrobenzofuran-5-yl)pyrazolo[1,5-a]pyrimidine-3-carboxamide], for which the inhibitory constant (Ki) turned out to be 5.4 nM.

Take `CC(CC(C)(C)O)N1Cc2cc(NC(=O)c3cnn4cccnc34)c(N3CCOCC3)cc2C1=O` (stereo in doubt) [Example 545, N-[2-[(1R)-3-hydroxy-1,3-dimethyl-butyl]-6-morpholino-1-oxo-isoindolin-5-yl]pyrazolo[1,5-a]pyrimidine-3-carboxamide]: the Ki was determined as 5.9 nM.
